Results published in ChEMBL document CHEMBL1124053, “Synthesis, pharmacology, and molecular modeling studies of semirigid, nicotinic agonists” (1988).

Assay: Potency (reciprocal of the equipotent molar ratio compared to carbamylcholine), estimated by contracture of the frog rectus abdominis muscle
Type: functional

| SMILES | Potency |
| --- | --- |
| C[N+]1(C)CCC(=NO)CC1 | 0.0055 |
| C[C@H](O)C1CC[N+](C)(C)CC1 | 0.25 |
| C[C@H](O)C1=CC[N+](C)(C)CC1 | 2 |
| CC(=O)C1=CC[N+](C)(C)CC1 | 50 |
| C[N+]1(C)CCN(C(=O)C(F)(F)F)CC1 | 4.6 |
| C[N+]1(C)CC=C(CO)CC1 | 0.35 |
| CC(=O)N1CC[N+](C)(C)CC1 | 2.6 |
| CC(=O)C1CC[N+](C)(C)CC1 | 9.1 |
